Measured values published in PubChem BioAssay AID2060893 (Molecular Pharmacology Branch, DTP, NCI, 2025).
“And” between values parts separate entries of the source, which are not always exact repeats. Equal values may be shown once.

Tested on: K86415-001-R-J1-PDC complex spheroids, viability
Assay: Anticancer human tumor K86415-001-R-J1-PDC patient-derived lung adenocarcinoma cell line growth inhibition [RAS]
Conditions: for viability, T/C: stronger effect = lower value
Text: RAS pathway inhibitors in Combinations in Complex Spheroids
A high-throughput screen of multi-cell type tumor spheroids was designed to identify active combinations of RAS pathway inhibitors and targeted small molecules. Complex spheroids include a stromal component modeled by human endothelial cells (HUVEC) and fibroblasts modeled by human mesenchymal stem cells (MSCs). The concentration ranges selected for each drug and investigational agent were based upon clinically achievable concentrations if the clinical Cmax of the agent was known.
Compounds. The drugs and investigational agents: abemaciclib (NSC768073), cobimetinib (NSC768068), divarasib (GDC6063, NSC841802), docetaxel (NSC628503), GDC-1971 (RLY-1971, NSC841576), gemcitabine (NSC613327), inavolisib (NSC800729), ipatasertib (NSC767898), KB-0742 (NSC834161), MRTX-1133 (NSC836407), osimertinib (NSC779217), RMC-4630 (NSC839698), RMC-6236 (NSC851965), RMC-6291 (NSC852671), Ro-3306 (NSC812927), sapanisertib (NSC764658), SN-38 (NSC673596), staurosporine (NSC755774), SY5609 (NSC837396), and tovorafenib (DAY101, NSC766906), were obtained from the National Cancer Institute (NCI) Developmental Therapeutics Program Chemical Repository. The FDA-approved anticancer drug set is available from the NCI Developmental Therapeutics Program. […] The stock solutions were prepared in dimethyl sulfoxide (DMSO, Sigma-Aldrich, St. Louis, MO, cat. D2650) at 800-fold the tested concentration and stored at -70 degrees C prior to their use. All drugs and investigational agents were tested over a range starting from a high concentration at or near the clinical Cmax and decreasing in half-log increments. If the clinical Cmax for an agent had not been determined, the highest concentration tested was 10 microM.
Cell Culture. All cells were maintained in an incubator at 37 degrees C and 5% CO2 with 95% humidity. The PDC lines were cultured according to standard operating procedures established by the NCI PDMR. All PDCs were thawed and cultured in Matrigel-coated flasks prepared with a working solution of 1X Ham's F-12 nutrient mix, without supplementation (Invitrogen, Waltham, MA, cat. 11765054), 100 U/mL penicillin-streptomycin (Invitrogen, cat. 15140122), and 2.5% Matrigel (Corning Inc., Corning, NY, cat. 354248) for the first three passages. The 362531-283-R-J2-PDC and 782815-120-R-J1-PDC lines were cultured in 6C/Colon 1B media, which includes advanced DMEM/F-12 (Thermo Fisher Scientific, cat. 12634028), 10 mM HEPES (Thermo Fisher Scientific, cat. 15630080), 1X GlutaMAX supplement (Thermo Fisher Scientific, cat. 35050061), 0.1 mg/mL primocin (InvivoGen, San Diego, CA, cat. ant-pm-2), 10% defined fetal bovine serum, heat inactivated (HyClone Laboratories Inc., Logan, UT, cat. SH30070.03HI), 50% L-WRN conditioned media (ATCC, cat. CRL-3276), 1.25 mM N-Acetyl-L-cysteine (Sigma-Aldrich, cat. A9165), 10 mM nicotinamide (Sigma-Aldrich, cat. N0636), 1X B-27 supplement (Thermo Fisher Scientific, cat. 17504044), 1X N-2 supplement (Thermo Fisher Scientific, cat. 17502048), 50 ng/mL human EGF (Thermo Fisher Scientific, cat. PHG0311), and 10 microM Y-27632 dihydrochloride (Tocris Bioscience, cat. 1254). The K12877-001-R-J1-PDC line was cultured in 6I media, which includes all 6C/Colon 1B media plus 10 ng/mL human FGF-10 (PeproTech, cat. 100-26), 1 ng/mL human FGF-2 (PeproTech, cat. 100-18B), 1 µM prostaglandin E2 (Tocris Bioscience, cat. 2296), […] hydrocortisone (Sigma-Aldrich, cat. H4001), and […] bovine insulin (Sigma-Aldrich, cat. I6634). The K86415-001-R-J1-PDC line was cultured in 6D media, which includes all 6C/Colon 1B media components minus the L-WRN conditioned media. The 485176-168-R4-J1-PDC was cultured in PANC media, which includes all 6C/Colon 1B media plus 100 ng/mL human FGF-10 (PeproTech, cat. 100-26), 500 nM SB-431542 (Selleckchem, cat. S1067), and 10 nM gastrin (Tocris Bioscience, cat. 3006). […]

[1] = curve of first compound, second compound 0.0316 µM
[2] = curve of first compound, second compound 0.1 µM
[3] = curve of first compound, second compound 0.316 µM
[4] = curve of first compound, second compound 1 µM
[5] = curve of first compound, second compound 3.16 µM
[6] = curve of first compound, second compound 10 µM
[7] = second compound 0.0316 µM, first compound 0.00316 µM
[8] = second compound 0.0316 µM, first compound 0.01 µM
[9] = second compound 0.0316 µM, first compound 0.0316 µM
[10] = second compound 0.0316 µM, first compound 0.1 µM
[11] = second compound 0.0316 µM, first compound 0.316 µM
[12] = second compound 0.0316 µM, first compound 1 µM
[13] = second compound 0.1 µM, first compound 0.00316 µM
[14] = second compound 0.1 µM, first compound 0.01 µM
[15] = second compound 0.1 µM, first compound 0.0316 µM
[16] = second compound 0.1 µM, first compound 0.1 µM
[17] = second compound 0.1 µM, first compound 0.316 µM
[18] = second compound 0.1 µM, first compound 1 µM
[19] = second compound 0.316 µM, first compound 0.00316 µM
[20] = second compound 0.316 µM, first compound 0.01 µM
[21] = second compound 0.316 µM, first compound 0.0316 µM
[22] = second compound 0.316 µM, first compound 0.1 µM
[23] = second compound 0.316 µM, first compound 0.316 µM
[24] = second compound 0.316 µM, first compound 1 µM
[25] = second compound 1 µM, first compound 0.00316 µM
[26] = second compound 1 µM, first compound 0.01 µM
[27] = second compound 1 µM, first compound 0.0316 µM
[28] = second compound 1 µM, first compound 0.1 µM
[29] = second compound 1 µM, first compound 0.316 µM
[30] = second compound 1 µM, first compound 1 µM
[31] = second compound 3.16 µM, first compound 0.00316 µM
[32] = second compound 3.16 µM, first compound 0.01 µM
[33] = second compound 3.16 µM, first compound 0.0316 µM
[34] = second compound 3.16 µM, first compound 0.1 µM
[35] = second compound 3.16 µM, first compound 0.316 µM
[36] = second compound 3.16 µM, first compound 1 µM
[37] = second compound 10 µM, first compound 0.00316 µM
[38] = second compound 10 µM, first compound 0.01 µM
[39] = second compound 10 µM, first compound 0.0316 µM
[40] = second compound 10 µM, first compound 0.1 µM
[41] = second compound 10 µM, first compound 0.316 µM
[42] = second compound 10 µM, first compound 1 µM
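Further: spheroids exposed to agents for seven days before readout.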

CC(=O)OC12COC1CC(O)C1(C)C(=O)C(O)C3=C(C)C(OC(=O)C(O)C(NC(=O)OC(C)(C)C)c4ccccc4)CC(O)(C(OC(=O)c4ccccc4)C21)C3(C)C (configuration not stated)
viability, T/C (compound 0.0316 µM): 32.8% [middle of 4 runs]
viability, T/C (compound 0.1 µM): 30.1% [middle of 4 runs]
viability, T/C (compound 0.316 µM): 31% [middle of 4 runs]
viability, T/C (compound 1 µM): 34.2% [middle of 4 runs]
viability, T/C (compound 3.16 µM): 36.2% [middle of 4 runs]
viability, T/C (compound 10 µM): 32.1% [middle of 4 runs]
IC50 (curve of compound): < 31.6 nM

CCC(CC)c1cc(NC2CCC(N)C2)n2nccc2n1 (configuration not stated)
viability, T/C (compound 0.0316 µM): 106% and 116% (2×) and 92.8%
viability, T/C (compound 0.1 µM): 115% [middle of 4 runs]
viability, T/C (compound 0.316 µM): 122% [middle of 4 runs]
viability, T/C (compound 1 µM): 100% [middle of 4 runs]
viability, T/C (compound 3.16 µM): 3.47% [middle of 4 runs]
viability, T/C (compound 10 µM): 3.37% [middle of 4 runs]
IC50 (curve of compound): 1.82 µM [middle of 4 runs]

Cc1nc(N2CCC3(CC2)COC(C)C3N)c(CO)nc1Sc1ccnc(N)c1Cl (configuration not stated)
viability, T/C (compound 0.0316 µM): 76.3% [middle of 4 runs]
viability, T/C (compound 0.1 µM): 53.6% [middle of 4 runs]
viability, T/C (compound 0.316 µM): 36.6% [middle of 4 runs]
viability, T/C (compound 1 µM): 27.2% [middle of 4 runs]
viability, T/C (compound 3.16 µM): 24.6% [middle of 4 runs]
viability, T/C (compound 10 µM): 20.1% [middle of 4 runs]
IC50 (curve of compound): 122 nM [middle of 4 runs]

NC1c2ccccc2OC12CCN(c1cnc3c(N4CCCc5ncccc54)n[nH]c3n1)CC2 (configuration not stated)
viability, T/C (compound 0.0316 µM): 46.3% [middle of 4 runs]
viability, T/C (compound 0.1 µM): 29.9% [middle of 4 runs]
viability, T/C (compound 0.316 µM): 22.7% [middle of 4 runs]
viability, T/C (compound 1 µM): 19.7% and 20.6% and 16.5%
viability, T/C (compound 3.16 µM): 21% [middle of 4 runs]
viability, T/C (compound 10 µM): 23.1% [middle of 4 runs]
IC50 (curve of compound): < 31.6 nM

C=CC(=O)Nc1cc(Nc2nccc(-c3cn(C)c4ccccc34)n2)c(OC)cc1N(C)CCN(C)C + C#Cc1c(F)ccc2cc(O)cc(-c3ncc4c(N5CC6CCC(C5)N6)nc(OCC56CCCN5CC(F)C6)nc4c3F)c12
IC50 [1]: 493 nM
IC50 [2]: 287 nM
IC50 [3]: 191 nM
IC50 [4]: 42.3 nM
IC50 [5]: < 3.16 nM
IC50 [6]: < 3.16 nM
viability, T/C [7]: 95.1%
viability, T/C [8]: 99.4%
viability, T/C [9]: 88.3%
viability, T/C [10]: 73.1%
viability, T/C [11]: 58.4%
viability, T/C [12]: 38.9%
viability, T/C [13]: 84.5%
viability, T/C [14]: 99.3%
viability, T/C [15]: 88.1%
viability, T/C [16]: 67.7%
viability, T/C [17]: 50.8%
viability, T/C [18]: 31.2%
viability, T/C [19]: 87.8%
viability, T/C [20]: 92.3%
viability, T/C [21]: 72.3%
viability, T/C [22]: 56.1%
viability, T/C [23]: 46.1%
viability, T/C [24]: 21.8%
viability, T/C [25]: 61.1%
viability, T/C [26]: 59.2%
viability, T/C [27]: 52.9%
viability, T/C [28]: 40.8%
viability, T/C [29]: 24.2%
viability, T/C [30]: 14.4%
viability, T/C [31]: 32.3%
viability, T/C [32]: 33.8%
viability, T/C [33]: 27.2%
viability, T/C [34]: 20.4%
viability, T/C [35]: 13.6%
viability, T/C [36]: 9.53%
viability, T/C [37]: 30.3%
viability, T/C [38]: 16.9%
viability, T/C [39]: 13.9%
viability, T/C [40]: 10.1%
viability, T/C [41]: 10.4%
viability, T/C [42]: 7%

O=C(c1ccc(F)c(F)c1Nc1ccc(I)cc1F)N1CC(O)([C@@H]2CCCCN2)C1 + C#Cc1c(F)ccc2cc(O)cc(-c3ncc4c(N5CC6CCC(C5)N6)nc(OCC56CCCN5CC(F)C6)nc4c3F)c12
IC50 [1]: 64.2 nM
IC50 [2]: 56 nM
IC50 [3]: 38.2 nM
IC50 [4]: 12.5 nM
IC50 [5]: < 3.16 nM
IC50 [6]: < 3.16 nM
viability, T/C [7]: 89%
viability, T/C [8]: 83.5%
viability, T/C [9]: 67.7%
viability, T/C [10]: 38%
viability, T/C [11]: 19.8%
viability, T/C [12]: 8.49%
viability, T/C [13]: 88.1%
viability, T/C [14]: 79.9%
viability, T/C [15]: 61.3%
viability, T/C [16]: 37%
viability, T/C [17]: 22.2%
viability, T/C [18]: 8.46%
viability, T/C [19]: 74.5%
viability, T/C [20]: 74.5%
viability, T/C [21]: 52.2%
viability, T/C [22]: 29.2%
viability, T/C [23]: 17.2%
viability, T/C [24]: 8.24%
viability, T/C [25]: 61.2%
viability, T/C [26]: 54.9%
viability, T/C [27]: 35.9%
viability, T/C [28]: 22%
viability, T/C [29]: 12.4%
viability, T/C [30]: 5.88%
viability, T/C [31]: 28.6%
viability, T/C [32]: 32%
viability, T/C [33]: 20.6%
viability, T/C [34]: 13.8%
viability, T/C [35]: 8.69%
viability, T/C [36]: 3.9%
viability, T/C [37]: 14.4%
viability, T/C [38]: 13.1%
viability, T/C [39]: 9.68%
viability, T/C [40]: 7.57%
viability, T/C [41]: 4.87%
viability, T/C [42]: 3%
